Measured values taken from patent US4818760A, “Derivatives of pyridylsulfinyl(benz-or thieno-)imidazoles and their use as gastric secretion inhibiting substances” (Chemie Linz Aktiengesellschaft, priority 1986, dated 1989).

Biological target: H^+ /K^+ -ATPase (Homo sapiens, UniProt P20648)
Assay: Inhibition of H^+ /K^+ -ATPase (comparison experiment / enzyme test)
Format: biochemical

Chain of H^+ /K^+ -ATPase (P20648 whole entry): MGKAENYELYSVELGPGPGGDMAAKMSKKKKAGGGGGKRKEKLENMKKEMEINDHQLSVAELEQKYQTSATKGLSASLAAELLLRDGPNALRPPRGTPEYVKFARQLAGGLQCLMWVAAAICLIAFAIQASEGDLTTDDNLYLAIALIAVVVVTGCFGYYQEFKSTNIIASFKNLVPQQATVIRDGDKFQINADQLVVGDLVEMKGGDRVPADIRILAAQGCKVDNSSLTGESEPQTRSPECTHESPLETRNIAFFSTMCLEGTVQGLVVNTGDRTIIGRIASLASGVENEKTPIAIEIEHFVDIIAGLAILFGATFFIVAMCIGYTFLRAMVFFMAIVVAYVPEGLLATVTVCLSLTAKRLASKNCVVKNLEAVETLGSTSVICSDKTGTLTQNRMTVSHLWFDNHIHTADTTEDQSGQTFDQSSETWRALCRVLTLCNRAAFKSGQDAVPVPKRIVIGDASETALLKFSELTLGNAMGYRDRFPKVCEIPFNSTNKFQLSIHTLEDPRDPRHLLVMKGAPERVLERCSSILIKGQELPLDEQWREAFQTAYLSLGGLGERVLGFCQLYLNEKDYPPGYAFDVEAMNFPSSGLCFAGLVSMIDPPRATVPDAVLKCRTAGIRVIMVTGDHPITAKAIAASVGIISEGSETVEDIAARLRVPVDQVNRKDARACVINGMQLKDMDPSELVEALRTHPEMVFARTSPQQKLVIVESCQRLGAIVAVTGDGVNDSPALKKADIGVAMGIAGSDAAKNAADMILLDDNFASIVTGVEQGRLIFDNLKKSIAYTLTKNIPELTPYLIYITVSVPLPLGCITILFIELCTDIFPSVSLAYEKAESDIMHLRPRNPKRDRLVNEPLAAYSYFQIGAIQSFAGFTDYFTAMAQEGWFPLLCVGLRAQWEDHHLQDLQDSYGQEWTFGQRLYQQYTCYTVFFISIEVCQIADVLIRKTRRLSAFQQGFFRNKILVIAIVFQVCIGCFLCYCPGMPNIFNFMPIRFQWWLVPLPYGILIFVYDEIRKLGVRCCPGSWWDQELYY
Chain of H^+ /K^+ -ATPase (P51164 whole entry partner): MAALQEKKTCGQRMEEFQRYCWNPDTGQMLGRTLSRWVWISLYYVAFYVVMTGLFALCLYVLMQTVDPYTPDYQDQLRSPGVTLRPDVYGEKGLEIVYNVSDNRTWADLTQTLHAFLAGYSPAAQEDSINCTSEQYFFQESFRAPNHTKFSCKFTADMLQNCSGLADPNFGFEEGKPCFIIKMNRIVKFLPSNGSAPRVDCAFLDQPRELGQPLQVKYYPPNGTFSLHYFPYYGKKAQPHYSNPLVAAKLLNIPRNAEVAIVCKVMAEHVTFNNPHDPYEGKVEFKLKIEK

## COc1c(C)cnc(C[S+]([O-])c2nc3cc(C4=NCCO4)ccc3[nH]2)c1C (centres unmarked) [Substance A, 5-(4,5-dihydro-2-oxazolyl)-2-((3,5-dimethyl-4-methoxy-2-pyridyl)methylsulfinyl)-1H-benzimidazole]
  IC50: 5.3 µM
Comparison with omeprazole
  inhibition of H^+ /K^+ -ATPase relative to omeprazole: approximately five times greater than does omeprazole
